Laboratory results reported in PMC10313052, “Filarial DAF-12 sense the host serum to resume iL3 development during infection” (PLOS Pathogens, 2023).
“Also recorded” adds a separate entry of the source.

Tests used:
HcoDAF-12 = biological target: T1, HcoDAF-12 (Haemonchus contortus, UniProt A0A7I4Z123); test: Cell-based transactivation assay, Gal4-HcoDAF-12_LBD luciferase reporter in NIH3T3 cells
T1 sequence (A0A7I4Z123 444-684): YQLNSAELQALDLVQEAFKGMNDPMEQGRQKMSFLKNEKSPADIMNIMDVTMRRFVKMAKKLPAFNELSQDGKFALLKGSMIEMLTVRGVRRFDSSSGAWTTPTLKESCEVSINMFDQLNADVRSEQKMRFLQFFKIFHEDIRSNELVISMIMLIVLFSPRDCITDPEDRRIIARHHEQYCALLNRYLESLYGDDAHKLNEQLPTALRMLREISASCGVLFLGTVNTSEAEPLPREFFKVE

DimDAF-12 = DimDAF-12 (Dirofilaria immitis, UniProt A0A7D0JJL8); test: cell-based; type: cell-based
CelDAF-12 = biological target: T2, CelDAF-12 (Caenorhabditis elegans, UniProt G5EFF5); test: cell-based; type: cell-based
T2 construct: fusing the LBD of the receptor of interest (Hco, Cel, Dim or BmaDAF12) and the DBD of GAL4; expressed in transfected cells; host or cells: NIH3T3
T2 sequence (G5EFF5 516-753 limits assumed): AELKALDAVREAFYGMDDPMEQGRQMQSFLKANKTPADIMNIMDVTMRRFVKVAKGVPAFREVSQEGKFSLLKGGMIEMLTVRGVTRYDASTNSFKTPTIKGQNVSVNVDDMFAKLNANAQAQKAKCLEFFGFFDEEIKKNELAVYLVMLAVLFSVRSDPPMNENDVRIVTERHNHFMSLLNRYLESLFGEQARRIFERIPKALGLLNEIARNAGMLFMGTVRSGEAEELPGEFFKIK

FXR = details: 10μM, 24 hours
D. immitis iL3 = details: 50 µM
[1] = concentrations well above the relevant physiological values
[2] = NIH3T3, 24 h, technical triplicates, Fig 2, read-out: EC50 (logEC50 SE) (converted)

Chain of DimDAF-12 (A0A7D0JJL8 587-828 limits assumed): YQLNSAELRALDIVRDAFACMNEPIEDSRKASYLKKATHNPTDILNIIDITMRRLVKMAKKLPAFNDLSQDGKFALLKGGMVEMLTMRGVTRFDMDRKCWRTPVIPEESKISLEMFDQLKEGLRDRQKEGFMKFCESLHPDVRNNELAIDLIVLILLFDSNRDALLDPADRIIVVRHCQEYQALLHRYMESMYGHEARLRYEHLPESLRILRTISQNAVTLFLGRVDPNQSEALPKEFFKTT

Molecule: 3β-hydroxy-5-cholestenoic acid
- Activation of HcoDAF-12 in dose-response (HcoDAF-12; [1]): failed to activate
- Activation of DimDAF-12 by spiked charcoal-stripped mouse serum (DimDAF-12): failed to activate; also recorded: did not activate
- Activation of CelDAF-12 in dose-response (CelDAF-12; [1]): failed to activate
- Activation of FXR (FXR): do not activate

Molecule: C[C@H](CCC[C@@H](C)[C@H]1CC[C@H]2[C@@H]3CCC4=CC(=O)CC[C@]4(C)[C@H]3CC[C@]12C)C(=O)O [(25R)-Δ4-DA]
- Activation of DimDAF-12 by spiked charcoal-stripped mouse serum (DimDAF-12): partially complement; also recorded: partially restores; also recorded: partial restoration

Molecule: CC(=O)N1CCN(c2ccc(OCC3COC(Cn4ccnc4)(c4ccc(Cl)cc4Cl)O3)cc2)CC1 (stereo not drawn) [ketoconazole]
- Survival of iL3 (D. immitis iL3): all iL3 died

Molecule: CC(CCCC(C)C1CCC2C3=CCC4CC(=O)CCC4(C)C3CCC21C)C(=O)O [Δ7-dafachronic acid, (25S)-Δ7-dafachronic acid]
- EC50 (HcoDAF-12; [2]): 12 nM
- EC50 (DimDAF-12): 1 nM
- EC50 (CelDAF-12; [2]): 11 nM
